Values quoted from earlier work as cited in patent US10292957B2, “Compositions and methods for treating fibromyalgia” (Quality IP Holdings, LLC, priority 2012, dated 2019).

Assays:
hGH secretion = details: for Effect on hGH: other amino acids, literature
[1] = tested on: patients with fibromyalgia; details: 4 days treatment
[2] = after subcutaneous injection of 0.06 IU, hGH deficient subjects
[3] = tested on: women with fibromyalgia and low IGF-1 levels
[4] = tested on: fibromyalgia patients with low IGF-1 levels
HGH-deficient adults = details: within months of hGH treatment
[5] = tested on: patients with severe fibromyalgia and low insulin-like growth factor 1 levels

In the case of `NCCCC[C@H](N)C(=O)O` [lysine], the “Effect on hGH” value (hGH secretion) is listed as “marked increases”.
In the case of hGH: human growth hormone, injectable, the “Plasma IGF-1 levels” value [1] is listed as “increase”, the “Plasma IGF-BP3 levels” value [1] is listed as “increase” and the “Mean levels of hGH reached” value [2] is listed as 0.4 ng/mL. For the same compound, the “FIQ score and tender point score over the placebo group” value ([3]; at nine months) was “significant improvement”, the IGF-1 levels ([3]; daily subcutaneous injections) was “prompt and sustained increase” and the “Tolerability of concomitant administration with standard therapy” value ([4]; no patients discontinued due to adverse events) was “well tolerated”. For the same compound, the “Reduction in the mean number of tender points (pairs) compared to the control group” value ([4]; subcutaneous, added to standard therapy, one year, end of study) was 60%, the “Lean body mass, skin thickness and muscle mass” value (HGH-deficient adults) was “gains” and the Pain ([5]; addition to the standard treatment, sustained action over time) was “effective in reducing pain”. For the same compound, the “FIQ scores compared with placebo group” value ([5]; low-dose add-on to standard treatment, 120 patients) was “significantly improved”.
In the case of `NCCC[C@H](N)C(=O)O` [ornithine], the “Effect on hGH” value (hGH secretion) is given as “marked increases”.
For `CSCC[C@H](N)C(=O)O` [methionine], the “Effect on hGH” value (hGH secretion) is given as “marked increases”.
In the case of `N[C@@H](Cc1c[nH]cn1)C(=O)O` [histidine], the “Effect on hGH” value (hGH secretion) is given as “marked increases”.
For `N=C(N)NCCC[C@H](N)C(=O)O` [arginine], the “Elevation of serum hGH levels” value (hGH secretion; 30 g, males) is listed as 8.6 fold and the “Increase of hGH levels” value (hGH secretion; intravenous infusion of 183 mg/kg body weight, females) is listed as over 20 fold.
For `N[C@@H](Cc1ccccc1)C(=O)O` [phenylalanine], the “Effect on hGH” value (hGH secretion) is listed as “marked increases”.
